Laboratory results: patent US6576266B1, “Plant extract based on glycerides, a method for the preparation of this extract and a cosmetic composition containing the same” (Sodic SA, priority 1999, dated 2003)

Legend:
[1] = test system: reduction of cytochrome c (xanthin oxidase); assay: Radical scavenging: slowing-down of the reduction of cytochrome c (Fridovitch and McCord); assay type: biochemical; conditions: 0.6315 mg/ml, phosphate buffer pH 7.8, 25° C.
Description: The experimental method is based on the procedure developed in 1973 by Fridovitch and McCord for SOD (J. Biol. Chem. 248, 2648).
The determination of the radical scavenging properties is based on the measurement of the inhibition or of the slowing-down of the reduction of cyto-chrome c by the product investigated, by comparison with the effect exerted by xanthin oxidase. The formation of reduced cytochrome c is monitored by spectrophotometry at 550 nm.
In these tests, a plant extract powder of the invention is used at a concentration of 1.5 mg/ml in a phosphate buffer pH 7.8 at 25° C.
Furthermore, an additional test was carried out with Dgdg alone, in the same conditions as above, but using the Fluka 36975 product having a purity of 95%.

[2] = molecular target: T1, elastase of human leukocytes (EHL) (Homo sapiens, UniProt P08246); assay: Inhibitory action against elastase (synthetic substrate, spectrophotometry at 405 nm); assay type: biochemical
T1 sequence (P08246 30-267): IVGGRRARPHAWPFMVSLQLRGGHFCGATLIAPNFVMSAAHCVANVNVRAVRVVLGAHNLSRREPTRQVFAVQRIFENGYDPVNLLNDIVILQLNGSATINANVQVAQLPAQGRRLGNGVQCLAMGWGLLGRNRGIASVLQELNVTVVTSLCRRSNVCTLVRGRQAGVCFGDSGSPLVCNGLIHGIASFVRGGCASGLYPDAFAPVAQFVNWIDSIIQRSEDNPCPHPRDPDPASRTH
Experimental: It was of interest to investigate the inhibitory action against elastase by the powder extract of the invention and to compare it with that of ceramide 3 alone.
The inhibitory action of the powder extract of the invention against EHL was examined in an aqueous solution of a Tris-HCl buffer, using N-methoxysuccinyl-alanyl-alanyl-prolyl-valyl-para-nitroanilide as a synthetic substrate.
The kinetics of the reaction were determined by spectrophotometry at 405 nm, enabling the measurement of the release of para-nitroanilide, which is a coloured product. The percent inhibitory action of the preparation against the elastase was determined by comparison with a reference curve (hydrolysis of the substrate in the absence of an inhibitor).

In the case of “2,3-di-O-(fatty acid acyl)-1-O-[6′-O-α-D-galactopyranosyl-β-galactopyranosyl]-D-glycerine [Dgdg]”, the “Slowing-down of the reduction of cytochrome c” value [1] is reported as 36.1% and the “Inhibitory activity against elastase (in words)” value [2] is reported as “practically no inhibitory activity”.
